Results as given in patent publication US20230085307A1, “PYRIDAZINONE COMPOUND AND HERBICIDE” (NISSAN CHEMICAL CORPORATION, priority 2019, published 2023).

Experiments:
Italian ryegrass = assay: Test Example 4: herbicidal effect by soil treatment (Table 19, symbol K); type: in vivo, Italian ryegrass (Lolium multiflorum); conditions: for K: Italian ryegrass, herbicidal effect rating: AAH 320 g/ha
Procedure, shortened: (§1)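 Herbicidal effect was rated 3 weeks after treatment, using the scoring criteria of an earlier test. The compound, formulated as an emulsion and diluted in water to a set herbicide amount, had been sprayed uniformly on soil over freshly sown seeds. Growth took place in a greenhouse at 25° C. to 30° C.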

rice flat sedge = assay: Test Example 3: herbicidal effect by foliage application, Wagner pot (Table 18, symbol E); type: in vivo, rice flat sedge (Cyperus iria); conditions: for herbicidal effect on E (rice flat sedge), rating 0-5: 320 g/ha
Procedure, shortened: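 Plants were sown in alluvial soil held under 0.1–0.5 cm standing water and grown 14 days in a greenhouse at 25–30 °C. An emulsifiable formulation, water-diluted to the set dose, was then sprayed onto the foliage, and effects were scored three weeks later using previously defined criteria.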

windgrass [1] = assay: Test Example 5: herbicidal effect by foliage application, plastic box (Table 20, symbol L); type: in vivo, windgrass (Apera spica-venti); conditions: foliage application; for effect on windgrass (L) / herbicidal effect grade, L: windgrass: 320 g/ha; for effect on windgrass (L): 3 weeks after application; for herbicidal effect grade, L: windgrass: three weeks after application
Procedure, shortened: (§2)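 Foliar spray test: emulsion formulation diluted in water to a set application rate, sprayed onto 14-day-old plants raised in diluvial soil at 25° C to 30° C under glass. Both herbicidal effect and crop effect rated visually three weeks later.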

oval-leafed pondweed [2] = assay: Test Example 1: herbicidal activity, application before weed generation under submerged conditions (Table 16, symbol C); type: in vivo, oval-leafed pondweed (Monochoria vaginalis); conditions: 320 g/ha applied herbicide
Procedure, shortened: (§3)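 Emulsion formulation, water-diluted to set dose, was put onto the flooded surface (4 cm depth, alluvial soil) the same day weeds were sown and 2.5-leaf rice transplanted. After 3 weeks at 25-30 °C under glass, each species was rated 0 (≤5% kill) to 5 (≥90% kill).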

Japanese bulrush [3] = assay: Test Example 2: herbicidal activity, application during weed generation under submerged conditions (Table 17, symbol B); type: in vivo, Japanese bulrush (Schoenoplectus juncoides); conditions: AAH 320 g/ha; application during weed generation, submerged conditions
Procedure, shortened: (§4)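 Steps: fill Wagner pots with alluvial soil; add water to give 4 cm depth; sow the species mixed; grow under glass at 25–30° C.; at 1–2 leaves apply water-diluted emulsion formulation to the water surface at a fixed herbicide amount; score after 3 weeks.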

wild oat = assay: Test Example 4: herbicidal effect by soil treatment (Table 19, symbol I); type: in vivo, wild oat (Avena fatua); conditions: for I: wild oat, herbicidal effect rating: AAH 320 g/ha
Procedure, shortened: as §1

oval-leafed pondweed [4] = assay: Test Example 2: herbicidal activity, application during weed generation under submerged conditions (Table 17, symbol C); type: in vivo, oval-leafed pondweed (Monochoria vaginalis); conditions: AAH 320 g/ha; application during weed generation, submerged conditions
Procedure, shortened: as §4

Japanese bulrush [5] = assay: Test Example 1: herbicidal activity, application before weed generation under submerged conditions (Table 16, symbol B); type: in vivo, Japanese bulrush (Schoenoplectus juncoides); conditions: 320 g/ha applied herbicide
Procedure, shortened: as §3

southern crabgrass = assay: Test Example 5: herbicidal effect by foliage application, plastic box (Table 20, symbol F); type: in vivo, southern crabgrass (Digitaria ciliaris); conditions: foliage application; for effect on southern crabgrass (F) / herbicidal effect grade, F: southern crabgrass: 320 g/ha; for effect on southern crabgrass (F): 3 weeks after application; for herbicidal effect grade, F: southern crabgrass: three weeks after application
Procedure, shortened: as §2

green foxtail [6] = assay: Test Example 4: herbicidal effect by soil treatment (Table 19, symbol G); type: in vivo, green foxtail (Setaria viridis); conditions: for G: green foxtail, herbicidal effect rating: AAH 320 g/ha
Procedure, shortened: as §1

lambsquarters = assay: Test Example 5: herbicidal effect by foliage application, plastic box (Table 20, symbol O); type: in vivo, lambsquarters (Chenopodium album); conditions: foliage application; for effect on lambsquarters (O) / herbicidal effect grade, O: lambsquarters: 320 g/ha; for effect on lambsquarters (O): 3 weeks after application; for herbicidal effect grade, O: lambsquarters: three weeks after application
Procedure, shortened: as §2

windgrass [7] = assay: Test Example 4: herbicidal effect by soil treatment (Table 19, symbol L); type: in vivo, windgrass (Apera spica-venti)
Procedure, shortened: as §1

green foxtail [8] = assay: Test Example 5: herbicidal effect by foliage application, plastic box (Table 20, symbol G); type: in vivo, green foxtail (Setaria viridis); conditions: foliage application; for effect on green foxtail (G) / herbicidal effect grade, G: green foxtail: 320 g/ha; for effect on green foxtail (G): 3 weeks after application; for herbicidal effect grade, G: green foxtail: three weeks after application
Procedure, shortened: as §2

velvetleaf = assay: Test Example 4: herbicidal effect by soil treatment (Table 19, symbol M); type: in vivo, velvetleaf (Abutilon theophrasti); conditions: for M: velvetleaf, herbicidal effect rating: AAH 320 g/ha
Procedure, shortened: as §1

persian speedwell = assay: Test Example 4: herbicidal effect by soil treatment (Table 19, symbol R); type: in vivo, Persian speedwell (Veronica persica)
Procedure, shortened: as §1

chickweed = assay: Test Example 5: herbicidal effect by foliage application, plastic box (Table 20, symbol P); type: in vivo, common chickweed (Stellaria media); conditions: foliage application; for herbicidal effect grade, P: chickweed: 320 g/ha, three weeks after application
Procedure, shortened: as §2

[9] = amount of applied herbicide 320 g/ha
[10] = AAH 320 g/ha, evaluated three weeks after application

Row | Compound | K: Italian ryegrass, herbicidal effect rating (Italian ryegrass) | herbicidal effect on E (rice flat sedge), rating 0-5 (rice flat sedge) | effect on windgrass (L) (windgrass [1]) | Herbicidal effect on C: oval-leafed pondweed (grade 0-5) (oval-leafed pondweed [2]) | herbicidal effect rating, B: Japanese bulrush (Japanese bulrush [3]) | I: wild oat, herbicidal effect rating (wild oat) | herbicidal effect rating, C: oval-leafed pondweed (oval-leafed pondweed [4]) | Herbicidal effect on B: Japanese bulrush (grade 0-5) (Japanese bulrush [5]) | effect on southern crabgrass (F) (southern crabgrass) | G: green foxtail, herbicidal effect rating (green foxtail [6]) | effect on lambsquarters (O) (lambsquarters) | effect on green foxtail (G) (green foxtail [8]) | M: velvetleaf, herbicidal effect rating (velvetleaf) | herbicidal effect rating, K: Italian ryegrass (Italian ryegrass; [9]) | herbicidal effect grade, L: windgrass (windgrass [1]) | herbicidal effect grade, P: chickweed (chickweed) | herbicidal effect rating, I: wild oat (wild oat; [9]) | herbicidal effect grade, F: southern crabgrass (southern crabgrass) | herbicidal effect rating, G: green foxtail (green foxtail [6]; [9]) | herbicidal effect grade, O: lambsquarters (lambsquarters) | other results
1 | C=CCC(C)Oc1ccc(-c2sc3ccccc3c2-c2c(O)c(C)nn(C)c2=O)cc1 (racemic) [1-213] | 3 (Herbicidal rate of 40% or more and less than 70%) | 3 (Herbicidal rate of 40% or more and less than 70%) | 5 (Herbicidal rate of 90% or more (almost completely withered)) | 5 (Herbicidal rate of 90% or more (almost completely withered)) | 3 (Herbicidal rate of 40% or more and less than 70%) | 0 (Herbicidal rate of 5% or less (almost no effect)) | 4 (Herbicidal rate of 70% or more and less than 90%) | 5 (Herbicidal rate of 90% or more (almost completely withered)) | 5 (Herbicidal rate of 90% or more (almost completely withered)) | 0 (Herbicidal rate of 5% or less (almost no effect)) | 5 (Herbicidal rate of 90% or more (almost completely withered)) | 5 (Herbicidal rate of 90% or more (almost completely withered)) | 0 (Herbicidal rate of 5% or less (almost no effect)) |  |  |  |  |  |  |  | L: windgrass, herbicidal effect rating (windgrass [7]; AAH 320 g/ha): 2 (Herbicidal rate of 20% or more and less than 40%)
2 | COCC(C)Oc1ccc(-c2sc3ccccc3c2-c2c(O)c(C)nn(C)c2=O)cc1 (racemic) [1-228] | 4 (Herbicidal rate of 70% or more and less than 90%) | 4 (Herbicidal rate of 70% or more and less than 90%) | 5 (Herbicidal rate of 90% or more (almost completely withered)) | 4 (Herbicidal rate of 70% or more and less than 90%) | 3 (Herbicidal rate of 40% or more and less than 70%) | 0 (Herbicidal rate of 5% or less (almost no effect)) | 3 (Herbicidal rate of 40% or more and less than 70%) | 5 (Herbicidal rate of 90% or more (almost completely withered)) | 5 (Herbicidal rate of 90% or more (almost completely withered)) | 5 (Herbicidal rate of 90% or more (almost completely withered)) | 5 (Herbicidal rate of 90% or more (almost completely withered)) | 5 (Herbicidal rate of 90% or more (almost completely withered)) | 4 (Herbicidal rate of 70% or more and less than 90%) |  |  |  |  |  |  |  | R: persian speedwell, herbicidal effect rating (persian speedwell; AAH 320 g/ha): 5 (Herbicidal rate of 90% or more (almost completely withered))
3 | CCCCCOc1ccc(-c2sc3ccccc3c2-c2c(O)c(C)nn(C)c2=O)cc1 [1-026] |  | 4 (Herbicidal rate of 70% or more and less than 90%) |  | 1 (Herbicidal rate of 5% or more and less than 20%) | 3 (Herbicidal rate of 40% or more and less than 70%) |  |  | 2 (Herbicidal rate of 20% or more and less than 40%) |  |  |  |  |  | 0 (Herbicidal rate of 5% or less (almost no effect)) | 4 (Herbicidal rate of 70% or more and less than 90%) | 5 (Herbicidal rate of 90% or more (almost completely withered)) | 0 (Herbicidal rate of 5% or less (almost no effect)) | 4 (Herbicidal rate of 70% or more and less than 90%) | 0 (Herbicidal rate of 5% or less (almost no effect)) | 0 (Herbicidal rate of 5% or less (almost no effect)) | herbicidal effect rating, L: windgrass (windgrass [7]; [9]): 0 (Herbicidal rate of 5% or less (almost no effect)); herbicidal effect grade, G: green foxtail (green foxtail [8]): 5 (Herbicidal rate of 90% or more (almost completely withered)); herbicidal effect rating, R: persian speedwell (persian speedwell; [9]): 3 (Herbicidal rate of 40% or more and less than 70%); herbicidal effect rating, M: velvetleaf (velvetleaf; [9]): 0 (Herbicidal rate of 5% or less (almost no effect))
4 | CC(=O)c1ccc(-c2sc3ccccc3c2-c2c(O)c(C)nn(C)c2=O)cc1 [1-041] |  | 5 (Herbicidal rate of 90% or more (almost completely withered)) |  | 4 (Herbicidal rate of 70% or more and less than 90%) | 3 (Herbicidal rate of 40% or more and less than 70%) |  | 3 (Herbicidal rate of 40% or more and less than 70%) | 4 (Herbicidal rate of 70% or more and less than 90%) |  |  |  |  |  | 5 (Herbicidal rate of 90% or more (almost completely withered)) | 4 (Herbicidal rate of 70% or more and less than 90%) | 5 (Herbicidal rate of 90% or more (almost completely withered)) | 1 (Herbicidal rate of 5% or more and less than 20%) | 4 (Herbicidal rate of 70% or more and less than 90%) | 3 (Herbicidal rate of 40% or more and less than 70%) | 3 (Herbicidal rate of 40% or more and less than 70%) | herbicidal effect grade, G: green foxtail (green foxtail [8]): 1 (Herbicidal rate of 5% or more and less than 20%); herbicidal effect rating, M: velvetleaf (velvetleaf; [9]): 3 (Herbicidal rate of 40% or more and less than 70%)
5 | Cc1nn(C)c(=O)c(-c2c(-c3ccc(O)cc3)sc3ccc(F)cc23)c1O [2-337] |  |  |  | 3 (Herbicidal rate of 40% or more and less than 70%) | 2 (Herbicidal rate of 20% or more and less than 40%) |  | 0 (Herbicidal rate of 5% or less (almost no effect)) | 3 (Herbicidal rate of 40% or more and less than 70%) |  |  |  |  |  |  |  |  |  |  |  |  | herbicidal effect on K: Italian ryegrass (Italian ryegrass; [9]): 0 (Herbicidal rate of 5% or less (almost no effect)); herbicidal effect on E: rice flat sedge (rice flat sedge; [9]): 3 (Herbicidal rate of 40% or more and less than 70%); L: windgrass, herbicidal effect (criteria 0-5) (windgrass [1]; [10]): 0 (Herbicidal rate of 5% or less (almost no effect)); P: chickweed, herbicidal effect (criteria 0-5) (chickweed; [10]): 5 (Herbicidal rate of 90% or more (almost completely withered)); herbicidal effect on I: wild oat (wild oat; [9]): 0 (Herbicidal rate of 5% or less (almost no effect)); F: southern crabgrass, herbicidal effect (criteria 0-5) (southern crabgrass; [10]): 0 (Herbicidal rate of 5% or less (almost no effect)); herbicidal effect on G: green foxtail (green foxtail [6]; [9]): 0 (Herbicidal rate of 5% or less (almost no effect)); O: lambsquarters, herbicidal effect (criteria 0-5) (lambsquarters; [10]): 3 (Herbicidal rate of 40% or more and less than 70%); herbicidal effect on L: windgrass (windgrass [7]; [9]): 0 (Herbicidal rate of 5% or less (almost no effect)); G: green foxtail, herbicidal effect (criteria 0-5) (green foxtail [8]; [10]): 0 (Herbicidal rate of 5% or less (almost no effect)); herbicidal effect on M: velvetleaf (velvetleaf; [9]): 0 (Herbicidal rate of 5% or less (almost no effect))
